pIC50: −log10 of the molar value.
Columns and labels:
rSmTAChE [1] = biological target: T1, rSmTAChE (Schistosoma mansoni, UniProt A0A3Q0KMM5); assay: biochemical
rSmTAChE [2] = biological target: T1, rSmTAChE; type: biochemical; details: for pIC50: read-out: qAC50 (IC50), rSmTAChE
[3] = biological target: recombinant human acetylcholinesterase, rHsAChE (Homo sapiens, UniProt P22303); assay: biochemical
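Wherever Inhibition (%) (Average) is given: mostly 20 µM final but a few compounds at 5 or 10 µM.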
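Wherever Inhibition (%) Replicate A is given: mostly 20 µM final but a few compounds at 5 or 10 µM.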
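Wherever Inhibition (%) Replicate B is given: mostly 20 µM final but a few compounds at 5 or 10 µM.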

Chain of recombinant human acetylcholinesterase, rHsAChE (P22303 32-614): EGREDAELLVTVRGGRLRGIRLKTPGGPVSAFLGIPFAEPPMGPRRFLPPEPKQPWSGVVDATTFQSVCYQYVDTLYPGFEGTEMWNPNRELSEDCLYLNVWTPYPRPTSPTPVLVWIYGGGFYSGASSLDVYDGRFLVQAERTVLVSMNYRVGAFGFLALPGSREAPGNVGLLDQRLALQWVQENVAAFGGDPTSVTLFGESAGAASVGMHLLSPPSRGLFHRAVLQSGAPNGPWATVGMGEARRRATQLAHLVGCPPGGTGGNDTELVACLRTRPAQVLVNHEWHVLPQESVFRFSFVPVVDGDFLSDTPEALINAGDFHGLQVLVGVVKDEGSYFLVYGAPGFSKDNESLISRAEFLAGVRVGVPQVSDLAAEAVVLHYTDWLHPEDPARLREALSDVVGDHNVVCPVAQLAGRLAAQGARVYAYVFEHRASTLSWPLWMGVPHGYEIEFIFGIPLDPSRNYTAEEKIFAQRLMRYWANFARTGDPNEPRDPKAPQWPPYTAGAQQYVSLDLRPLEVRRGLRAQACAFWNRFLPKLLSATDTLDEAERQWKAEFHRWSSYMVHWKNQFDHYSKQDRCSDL
T1 sequence (A0A3Q0KMM5 27-661 limits assumed): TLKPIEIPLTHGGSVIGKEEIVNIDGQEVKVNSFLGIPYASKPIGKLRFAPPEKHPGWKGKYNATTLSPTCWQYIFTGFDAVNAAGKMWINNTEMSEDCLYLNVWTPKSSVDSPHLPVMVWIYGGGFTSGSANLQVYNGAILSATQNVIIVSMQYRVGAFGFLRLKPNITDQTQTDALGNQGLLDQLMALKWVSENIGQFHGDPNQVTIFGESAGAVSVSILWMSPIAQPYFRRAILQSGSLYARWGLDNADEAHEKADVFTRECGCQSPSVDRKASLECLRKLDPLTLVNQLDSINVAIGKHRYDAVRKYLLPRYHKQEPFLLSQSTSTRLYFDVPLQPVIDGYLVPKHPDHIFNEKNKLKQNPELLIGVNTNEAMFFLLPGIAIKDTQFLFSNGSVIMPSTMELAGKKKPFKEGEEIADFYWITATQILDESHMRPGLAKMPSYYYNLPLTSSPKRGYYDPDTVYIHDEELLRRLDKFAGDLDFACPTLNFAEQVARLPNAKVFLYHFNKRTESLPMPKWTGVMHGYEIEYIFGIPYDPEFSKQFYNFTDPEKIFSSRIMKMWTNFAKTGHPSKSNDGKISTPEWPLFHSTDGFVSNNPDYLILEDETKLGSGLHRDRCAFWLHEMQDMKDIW

Row | Compound | Inhibition (%) (Average) (rSmTAChE [1]) | Inhibition (%) Replicate A (rSmTAChE [1]) | Inhibition (%) Replicate B (rSmTAChE [1]) | Data Mode (curve class), rSmTAChE (rSmTAChE [2]) | pIC50 (rSmTAChE [2]) | Data Mode (curve class), rHsAChE [3] | rSmTAChE Data Mode (rSmTAChE [2]) | rHsAChE Data Mode [3] | pIC50 ([3]; read-out: qAC50 (IC50), rHsAChE)
1 | C[C@H]1[C@H](C)CC[C@]2(C(=O)O)CC[C@]3(C)C(=CC[C@@H]4[C@@]5(C)CC[C@H](O)C(C)(C)[C@@H]5CC[C@]43C)[C@H]12 [BRD-K68185022-001-14-8] | 75.09% | 74.28% | 75.90% | decreasing (weakly active) | < 4.42 | inactive |  |  | 
2 | N#C[C@H]1[C@@H](c2ccc(C#CC3CC3)cc2)[C@@H](CO)N1C(=O)Cc1ccccn1 [BRD-K68325500-004-02-0] | 64.83% | 63.64% | 66.02% |  |  |  | inactive | inactive | 
3 | CC(C)C#Cc1ccc([C@@H]2[C@@H](CO)N3C(=O)CN(S(=O)(=O)c4ccccc4)C[C@@H]23)cc1 [BRD-K69261014-001-01-3] | 63.59% | 66.79% | 60.39% |  |  |  | inactive | increasing (weakly active) | 
4 | COC(=O)[C@]12CCC(C)(C)C[C@@H]1[C@@H]1C(=O)C=C3[C@]4(C)C=C(C#N)C(=O)C(C)(C)[C@@H]4CC[C@@]3(C)[C@]1(C)CC2 [BRD-K69694239-001-02-2] | 75.78% | 75.16% | 76.41% | decreasing | 4.46 | decreasing (weakly active) |  |  | < 4.42
5 | NC(=O)N/N=C/c1ccc(Oc2ccc(F)cc2)cc1 [BRD-K70912147-001-01-8] | 75.84% | 80.22% | 71.46% | inactive |  | inactive |  |  | 
6 | O=C(C[C@@H]1C[C@@H]2c3cc(NC(=O)NC4CCCC4)ccc3O[C@@H]2[C@@H](CO)O1)NCc1ccccc1F [BRD-K71334452-001-01-3] | 89.18% | 90.25% | 88.11% |  |  |  | inactive | inactive | 
7 | COc1ccc(C#Cc2ccc3c(c2)O[C@H](CN(C)S(=O)(=O)c2ccccc2F)[C@H](C)CN([C@@H](C)CO)S3(=O)=O)cc1 [BRD-K71357636-001-01-3] | 64.93% | 63.67% | 66.19% |  |  |  | inactive | inactive | 
8 | C[C@H](CO)N1C[C@H](C)[C@@H](CN(C)C(=O)Nc2cc(F)ccc2F)Oc2cc(-c3cccc(C#N)c3)ccc2S1(=O)=O [BRD-K72311435-001-01-2] | 61.10% | 61.21% | 60.99% |  |  |  | inactive | decreasing (weakly active) | 
9 | C/C=C/c1cccc(-c2nc(C(=O)NCc3ccc(OC)cc3)cc3c2[C@@H](CCO)N([S@+]([O-])C(C)(C)C)C3)c1 [BRD-K73104592-001-03-5] | 64.19% | 65.92% | 62.45% |  |  |  | inactive | inactive | 
10 | C[C@H](CO)N1C[C@H](C)[C@H](CN(C)S(=O)(=O)c2ccc(F)cc2)Oc2c(NC(=O)Nc3cccc4ccccc34)cccc2C1=O [BRD-K73245004-001-02-0] | 68.21% | 69.56% | 66.86% |  |  |  | decreasing (weakly active) | inactive | 
11 | Cc1cc(C#N)cc(C)c1Oc1nc(Nc2ccc(C#N)cc2)nc(N)c1Br [BRD-K74717603-001-02-2] | 74.49% | 77.10% | 71.88% | decreasing (weakly active) | < 4.42 | inactive |  |  | 
12 | O=C(C[C@@H]1C[C@@H]2c3cc(NC(=O)Nc4ccccc4)ccc3O[C@@H]2[C@@H](CO)O1)NC1CCCC1 [BRD-K74918080-001-01-0] | 91.31% | 92.86% | 89.77% |  |  |  | decreasing (weakly active) | inactive | 
13 | COc1ccc(NC(=O)Nc2ccc3c(c2)[C@@H]2C[C@H](CC(=O)NCc4ccc5c(c4)OCO5)O[C@H](CO)[C@@H]2O3)cc1 [BRD-K77518191-001-01-1] | 88.00% | 87.37% | 88.63% |  |  |  | decreasing (weakly active) | inactive | 
